Paper PMC12557383, “Development of a Potent and Functional In Vivo Peptide Competitive Inhibitor for the Toxin MazF” (Journal of Medicinal Chemistry, 2025)

Key:
Format in all cases: cell-based, Escherichia coli
[1] = tested on: E. coli cells expressing MazF; assay: Antibiotic survival assay (ciprofloxacin), coexpression with MazF; conditions: 4 μg/mL ciprofloxacin, up to 4 h; toxin induced 1 h before antibiotic
Method: This experiment was conducted as described above (“bacterial growth assay”) until the induction of the toxin. However, 1 h after mazF induction with 0.5% of L-arabinose, approximately two million cells were removed from each culture and diluted with LB (final volume of 10 mL) supplemented with IPTG, L-arabinose, and antibiotics for plasmid maintenance. Here, an aliquot of 1 mL was withdrawn, which represents time zero (before the implementation of antibiotic stress). Cells were then exposed to 4 μg/mL ciprofloxacin and incubated at 37 °C/215 rpm for 4 h. Aliquots of 1 mL were taken at intervals of 1 h and washed three times with LB medium (5,000 rpm/5 min/4 °C) to remove the antibiotic. After the last wash step, the culture medium was removed, and the cell pellet was resuspended in 100 μL of LB medium. 10-fold serial dilutions were made from this solution using LB medium, and 2 μL of each dilution was spotted on solid LB-agar supplemented with antibiotics for the maintenance of plasmids. Plates were incubated at 37 °C for 24 h and photographed. The experiment was repeated at least three times.

[2] = tested on: E. coli cells superexpressing MazF; assay: Oxygen consumption assay, coexpression with MazF; conditions: cells coexpressing MazF and recombinant SamF; 1 mM IPTG, 1% L-arabinose, 37 °C
Method: This experiment was conducted as described above (“bacterial growth assay”). However, 90 min after induction of recombinant samF with 1 mM IPTG, an aliquot of 1 mL of a cell suspension containing approximately 2.5 million cells was removed from each culture and placed into the chamber of an Oroboros O2K oxygraph (Bioplast) instrument. After equilibration of the oxygen consumption rate, mazF expression was induced by the addition of 1% of L-arabinose, and the consumption rate and amount of dissolved oxygen was monitored for a period of about 3 h. The experiment was carried out at 37 °C under orbital shaking at 200 rpm and repeated at least three times.

[3] = tested on: E. coli cells superexpressing MazF; assay: Resazurin assay (redox state), coexpression with MazF; conditions: cells coexpressing MazF and recombinant SamF, 1 h MazF expression, 75 μg/mL resazurin
Method: This experiment was conducted as described above (“bacterial cell growth assay”). However, 1 h after mazF induction with 1% of L-arabinose, approximately 40 millions of cells in 200 μL of LB (with antibiotics, IPTG and L-arabinose) were taken and incubated with 75 μg/mL of resazurin (final concentration). The experiment was performed in a 96-well plate in triplicate. The plate was incubated at 37 °C/70 rpm, and the color development, due to resazurin reduction, was monitored every hour visually and by scanning the dye absorbance between 500–700 nm.

[4] = tested on: E. coli cells superexpressing MazF; assay: Glucose uptake assay (2-NBDG, flow cytometry), coexpression with MazF; conditions: cells coexpressing MazF and recombinant SamF, 400 μM 2-NBDG
Method: This experiment was carried out as described above (“bacterial cell growth assay”). However, 1 h after mazF induction with 1% of L-arabinose, cells were harvested by centrifugation (10 min/4,500 rpm/4 °C). The cell pellet was resuspended in 5 mL of M9 media without glucose or any other carbon source (M9^–glucose). Cells were pelleted again and resuspended in M9^–glucose as above. Ten million cells were removed from this solution in a final volume of 5 mL of M9^–glucose and incubated with 400 μM of the fluorescent glucose analog 2-NDBG (Thermofisher) at 37 °C/300 rpm. Aliquots of 0.5 mL were taken at 1 h intervals for a period of 3 h. To remove the noninternalized 2-NBG dye, cells were centrifuged (10 min/4,500 rpm/4 °C) and the supernatant was removed. After a new wash step with 1 mL of M9^–glucose, the cell pellet was resuspended in 0.5 mL of M9^–glucose. Cells were placed on ice until all samples were collected and then immediately subjected to flow cytometry on a BD FACS Canto II system (BD Biosciences) with an excitation/emission wavelength at 488/530 nm. The percentage of cells labeled with 2-NGDG was calculated relative to the fluorescence of the stainless control with FlowJo software.

MSHLFWAQFDEYF [recombinant SamF, recombinantly expressed SamF ([…]) from pET-24a-samF in E. coli]
Survival of cells coexpressing MazF and the peptide under ciprofloxacin (result in words) [1]: almost eradicated after only 1 h
Oxygen consumption rate after mazF induction [2]: 20 pmol/s
Time to complete reduction of resazurin [3]: 3 to 4 h
Percentage of cells labeled with 2-NBDG ([4]; first hour): 64%
Percentage of cells labeled with 2-NBDG ([4]; second hour): 87%
Percentage of cells labeled with 2-NBDG ([4]; third hour): 96%
